Here are results for eleven compounds from patent publication US12516067B2, “Antagonists of the muscarinic acetylcholine receptor M4” (Vanderbilt University, priority 2020, dated 2026).

In the experiment the target is T1, Human M4 (Homo sapiens, UniProt P08173).
T1 construct: expressed in transfected cells; host or cells: CHO-K1 (ATCC), co-transfected with chimeric G protein Gqi5
T1 sequence (P08173 1-479): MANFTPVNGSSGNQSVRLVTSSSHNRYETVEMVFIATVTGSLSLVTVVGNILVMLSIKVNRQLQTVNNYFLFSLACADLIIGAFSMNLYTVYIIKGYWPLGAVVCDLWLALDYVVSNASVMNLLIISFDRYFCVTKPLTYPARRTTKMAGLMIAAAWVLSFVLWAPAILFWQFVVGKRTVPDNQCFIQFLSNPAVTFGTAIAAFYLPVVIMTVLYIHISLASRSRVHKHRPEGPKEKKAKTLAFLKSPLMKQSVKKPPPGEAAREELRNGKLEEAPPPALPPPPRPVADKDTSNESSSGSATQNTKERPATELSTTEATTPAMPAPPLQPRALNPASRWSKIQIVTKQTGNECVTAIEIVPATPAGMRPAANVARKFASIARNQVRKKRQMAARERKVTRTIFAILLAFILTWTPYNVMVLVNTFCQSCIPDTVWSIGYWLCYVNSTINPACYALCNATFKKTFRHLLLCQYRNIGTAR
In words: mAChR M4 cell-based functional assay (calcium flux, decrease of EC80 acetylcholine response) in M4/Gqi5/CHO-K1 cells. The settings on record: CHO-K1 cells with human M4 and Gqi5; for remaining activity at 30 µM: % ACh maximum at 30 μM, read-out: Human M4 Emin; for IC50: antagonist mode: concentration-dependent decrease of response to EC80 acetylcholine. The protocol: Human or rat M4 cDNA, along with the chimeric G protein Gqi5, were transfected into Chinese hamster ovary (CHO-K1) cells purchased from the American Type Culture Collection using Lipofectamine2000. M4/Gqi5/CHO cells were grown in Ham's F-12 medium containing 10% heat-inactivated fetal bovine serum (FBS), 20 mM HEPES, 500 μg/mL G418 sulfate, and 200 μg/mL Hygromycin B.
For high throughput measurement of agonist-evoked increases in intracellular calcium, CHO-K1 cells stably expressing muscarinic receptors were plated in growth medium lacking G418 and hygromycin at 15,000 cells/20 μL/well in Greiner 384-well black-walled, tissue culture (TC)-treated, clear-bottom plates (VWR). Cells were incubated overnight at 37° C. and 5% CO2. The next day, cells were washed using an ELX 405 (BioTek) with assay buffer; the final volume was then aspirated to 20 μL. Next, 20 μL of a 2.3 μM stock of Fluo-4/acetoxymethyl ester (Invitrogen, Carlsbad, CA), prepared as a 2.3 mM stock in DMSO and mixed in a 1:1 ratio with 10% (w/v) Pluronic F-127 and diluted in assay buffer, was added to the wells and the cell plates were incubated for 50 min at 37° C. and 5% CO2. Dye was removed by washing with the ELX 405 and the final volume was aspirated to 20 μL. Compound master plates were formatted in a 10 point concentration-response curve (CRC) format (1:3 dilutions) in 100% DMSO with a starting concentration of 10 or 1 mM using a BRAVO liquid handler (Agilent). Test compound CRCs were then transferred to daughter plates (240 nL) using the Echo acoustic plate reformatter (Labcyte, Sunnyvale, CA) and then diluted into assay buffer (40 μL) to a 2× stock using a Thermo Fisher Combi (Thermo Fisher Scientific, Waltham, MA).
Calcium flux was measured using the Functional Drug Screening System (FDSS) 6000 or 7000 (Hamamatsu Corporation, Tokyo, Japan) as an increase in the fluorescent static ratio. Compounds were applied to cells (20 μL, 2×) using the automated system of the FDSS at 2 seconds into the protocol and the data were collected at 1 Hz. At 143 s, 10 μL of an EC20 concentration of the muscarinic receptor agonist acetylcholine was added (5×), followed by the addition of 12 μL of an EC80 concentration of acetylcholine at the 268 s time point (5×). Agonist activity was analyzed as a concentration-dependent increase in calcium mobilization upon compound addition. Positive allosteric modulator activity was analyzed as a concentration-dependent increase in the EC20 acetylcholine response. Antagonist activity was analyzed as a concentration-dependent decrease in the EC80 acetylcholine response; for the purposes of the tables herein, an IC50 (inhibitory concentration 50) was calculated as a concentration-dependent decrease of the response elicited by an EC80 concentration of acetylcholine. Concentration-response curves were generated using a four-parameter logistical equation in XLFit curve fitting software (IDBS, Bridgewater, NJ) for Excel (Microsoft, Redmond, WA) or Prism (GraphPad Software, Inc., San Diego, CA) or the Dotmatics software platform (Dotmatics, Bishop's Stortford, UK).
Compounds were synthesized as described above. Activity (IC50 and Emin) was determined in the mAChR M4 cell-based functional assay as described above and the data are shown in Table 1.

With `CC(C)(C)CCN1CCc2c(CNc3ccc(-c4cc(F)ccc4Cl)nn3)csc2C1` [A10, 6-(2-chloro-5-fluorophenyl)-N-((6-(3,3-dimethylbutyl)-4,5,6,7-tetrahydrothieno[2,3-c]pyridin-3-y)methyl)pyridazin-3-amine], the remaining activity at 30 µM amounted to 4% and the half-maximal inhibitory concentration (IC50) (in general, the point on the concentration scale where inhibition reaches its midpoint) was determined as 84.7 nM.

As for `Cn1cc2cc(-c3ccc(NCc4csc5c4CCN(CC4CCOCC4)C5)nn3)ccc2n1` [A3, 6-(2-methyl-2H-indazol-5-yl)-N-((6-((tetrahydro-2H-pyran-4-yl)methyl)-4,5,6,7-tetrahydrothieno[2,3-c]pyridin-3-yl)methyl)pyridazin-3-amine], the remaining activity at 30 µM stood at 9% and the IC50 amounted to 529 nM.

In the case of `Cc1ccc(CN2CCc3c(CNc4ccc(-c5cc(F)ccc5Cl)nn4)csc3C2)nc1` [A12, 6-(2-chloro-5-fluorophenyl)-N-((6-((5-methylpyridin-2-yl)methyl)-4,5,6,7-tetrahydrothieno[2,3-c]pyridin-3-yl)methyl)pyridazin-3-amine], the remaining activity at 30 µM is 10% and the IC50 turned out to be 1480 nM.

`Fc1ccc(Cl)c(-c2ccc(NCc3cccc4c3CCN(Cc3ccccn3)C4)nn2)c1` [B4, 6-(2-chloro-5-fluorophenyl)-N-((2-(pyridin-2-ylmethyl)-1,2,3,4-tetrahydroisoquinolin-5-yl)methyl)pyridazin-3-amine]: the remaining activity at 30 µM came out at 6% and the 50% inhibitory concentration (IC50) stood at 288 nM.

For the compound `Fc1cc(F)c(F)c(-c2ccc(NCc3cccc4c3CCN(CC3CCOCC3)C4)nn2)c1` [B7, N-((2-((tetrahydro-2H-pyran-4-yl)methyl)-1,2,3,4-tetrahydroisoquinolin-5-yl)methyl)-6-(2,3,5-trifluorophenyl)pyridazin-3-amine], the remaining activity at 30 µM is 11% and the half-inhibitory concentration (IC50) was found to be 616 nM.

As for `CN(Cc1csc2c1CCN(CC1CCOCC1)C2)c1ccc(-c2cc(F)ccc2Cl)nn1` [A14, 6-(2-chloro-5-fluorophenyl)-N-methyl-N-((6-((tetrahydro-2H-pyran-4-yl)methyl)-4,5,6,7-tetrahydrothieno[2,3-c]pyridin-3-yl)methyl)pyridazin-3-amine], the remaining activity at 30 µM stood at 7% and the half-maximal inhibitory concentration (IC50) turned out to be 1680 nM.

For the compound `Fc1ccc(Cl)c(-c2ccc(NCc3cccc4c3CCN(CC3CCCCC3)C4)nn2)c1` [B3, 6-(2-chloro-5-fluorophenyl)-N-((2-(cyclohexylmethyl)-1,2,3,4-tetrahydroisoquinolin-5-y1)methyl)pyridazin-3-amine], the remaining activity at 30 µM is 6% and the IC50 was 251 nM.

Take `O=S1(=O)CCCCN1c1ccc(NCc2csc3c2CCN(CC2CCOCC2)C3)nn1` [A8, 2-(6-(((6-((tetrahydro-2H-pyran-4-yl)methyl)-4,5,6,7-tetrahydrothieno[2,3-c]pyridin-3-yl)methyl)amino)pyridazin-3-yl)-1,2-thiazinane 1,1-dioxide]: the remaining activity at 30 µM worked out at 11% and the 50% inhibitory concentration (IC50) came out at 1400 nM.

Consider `Cc1ccc(F)cc1-c1ccc(NCc2cccc3c2CCN(CC2CCOCC2)C3)nn1` [B10, 6-(5-fluoro-2-methylphenyl)-N-((2-((tetrahydro-2H-pyran-4-yl)methyl)-1,2,3,4-tetrahydroisoquinolin-5-yl)methyl)pyridazin-3-amine], for which the remaining activity at 30 µM turned out to be 5% and the IC50 was 335 nM.

For `Fc1ccc(F)c(-c2ccc(NCc3cccc4c3CCN(CC3CCOCC3)C4)nn2)c1` [B8, 6-(2,5-difluorophenyl)-N-((2-((tetrahydro-2H-pyran-4-yl)methyl)-1,2,3,4-tetrahydroisoquinolin-5-yl)methyl)pyridazin-3-amine], the remaining activity at 30 µM is 8% and the half-inhibitory concentration (IC50) came to 781 nM.

`Fc1ccc(Cl)c(-c2ccc(NCc3cccc4c3CCN(CCC3CCOCC3)C4)nn2)c1` [B5, 6-(2-chloro-5-fluorophenyl)-N-((2-(2-(tetrahydro-2H-pyran-4-yl)ethyl)-1,2,3,4-tetrahydroisoquinolin-5-yl)methyl)pyridazin-3-amine]: the remaining activity at 30 µM came to 6% and the half-inhibitory concentration (IC50) was 87 nM.
